The results in this text go back to ChEMBL document CHEMBL3576818, “Structure-Activity Relationships of (+)-Naltrexone-Inspired Toll-like Receptor 4 (TLR4) Antagonists” (J Med Chem, 2015).

Each structure is given as a SMILES string. pIC50: −log10 of the molar value.

The nature of assay [1]: Cytotoxicity against mouse BV2 cells assessed as reduction in viability by crystal violet staining method. Conditions: BV-2.
The target in assay [2] is T1, Toll-like receptor 4 (Mus musculus, UniProt Q9QUK6).
T1 sequence (Q9QUK6 whole entry): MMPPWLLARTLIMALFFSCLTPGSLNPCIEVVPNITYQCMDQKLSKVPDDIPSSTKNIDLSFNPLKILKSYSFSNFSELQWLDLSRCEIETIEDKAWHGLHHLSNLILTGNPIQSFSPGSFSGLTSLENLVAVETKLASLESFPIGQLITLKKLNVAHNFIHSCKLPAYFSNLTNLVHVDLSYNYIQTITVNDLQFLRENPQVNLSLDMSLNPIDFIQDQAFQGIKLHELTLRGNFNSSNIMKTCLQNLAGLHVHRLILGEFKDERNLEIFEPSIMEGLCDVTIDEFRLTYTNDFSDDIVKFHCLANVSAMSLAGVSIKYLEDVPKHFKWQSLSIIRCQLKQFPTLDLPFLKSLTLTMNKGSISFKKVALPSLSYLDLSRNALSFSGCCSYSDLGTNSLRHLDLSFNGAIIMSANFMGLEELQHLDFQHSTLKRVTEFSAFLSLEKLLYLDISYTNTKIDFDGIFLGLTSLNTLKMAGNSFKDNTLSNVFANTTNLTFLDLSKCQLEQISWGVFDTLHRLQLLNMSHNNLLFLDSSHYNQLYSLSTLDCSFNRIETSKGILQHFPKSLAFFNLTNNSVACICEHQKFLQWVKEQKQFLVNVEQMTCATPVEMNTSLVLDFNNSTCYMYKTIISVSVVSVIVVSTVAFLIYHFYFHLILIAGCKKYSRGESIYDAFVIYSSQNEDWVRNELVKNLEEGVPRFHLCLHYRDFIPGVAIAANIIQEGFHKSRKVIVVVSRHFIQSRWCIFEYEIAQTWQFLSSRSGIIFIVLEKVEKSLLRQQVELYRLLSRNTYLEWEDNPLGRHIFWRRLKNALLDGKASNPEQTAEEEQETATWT
Description: Antagonist activity against TLR4 in mouse BV2 cells assessed as inhibition of LPS-induced nitric oxide production incubated for 24 hrs by 2,3-diaminonaphthalene dye based assay

Regarding `O=C1CC[C@]2(O)[C@@H]3Cc4ccc(O)c5c4[C@]2(CCN3CCCCCc2ccccc2)[C@@H]1O5`, the negative logarithm of the IC50 (pIC50) – broadly, the IC50 on a negative log10 scale, so that one unit is a factor of ten – is 4.57 in assay [1] and 5.77 in assay [2].

As to `O=C1CC[C@]2(O)[C@@H]3Cc4ccc(O)c5c4[C@]2(CCN3CC2CC2)[C@@H]1O5`, the negative-log IC50 (pIC50) in assay [1] is less than 3.40; in assay [2], 3.98.

As for `O=C1CC[C@]2(O)CN(CC3CC3)CC[C@]23c2cccc(O)c2O[C@H]13`, the pIC50 is less than 3.40 in assay [1] and 4.12 in assay [2].

In assay [2], `CCCCCCN1CC[C@@]23CCCC[C@]2(O)[C@@H]1Cc1ccc(O)cc13` gave a pIC50 of 5.28.

With `Oc1ccc2c3c1O[C@@H]1[C@@H](O)CC[C@]4(O)[C@H](C2)N(CC2CC2)CC[C@@]314`, the pIC50 was less than 3.40 in assay [1] and 3.61 in assay [2].

On to `Oc1ccc2c3c1O[C@@H]1[C@H](O)CC[C@]4(O)[C@H](C2)N(CC2CC2)CC[C@@]314`, for which the pIC50 in assay [1] is less than 3.40; in assay [2], 3.84.

Take `O=C1CC[C@]2(O)[C@@H]3Cc4ccc(O)cc4[C@]2(CCN3CC2CC2)C1`: the pIC50 in assay [1] is less than 3.40; in assay [2], 3.93.

For `Oc1ccc2c(c1)[C@]13CCCC[C@]1(O)[C@H](C2)N(CC1CC1)CC3`, the negative-log IC50 (pIC50) is 3.44 in assay [1] and 4.31 in assay [2].

Take `CCCCCCN1CC[C@@]23C=CCC[C@]2(O)[C@@H]1Cc1ccc(O)cc13`: the figures for the negative logarithm of the IC50 (pIC50) in assay [1] and in assay [2] were 3.81 and 4.65, respectively.

As to `CCCCN1CC[C@@]23c4c5ccc(O)c4O[C@@H]2C(=O)CC[C@]3(O)[C@@H]1C5`, the pIC50 is less than 3.70 in assay [1] and 4.61 in assay [2].

Regarding `CCCCCN1CC[C@@]23c4c5ccc(O)c4O[C@@H]2C(=O)CC[C@]3(O)[C@@H]1C5`, the pIC50 in assay [1] was less than 3.70; in assay [2], 5.12.

Consider `CCCCCCN1CC[C@@]23c4c5ccc(O)c4O[C@@H]2C(=O)CC[C@]3(O)[C@@H]1C5`, for which the negative logarithm of the IC50 (pIC50) in assay [1] was 3.92; in assay [2], 5.17.

With `CCCCCCCN1CC[C@@]23c4c5ccc(O)c4O[C@@H]2C(=O)CC[C@]3(O)[C@@H]1C5`, the negative logarithm of the IC50 (pIC50) in assay [1] is 4.16; in assay [2], 5.52.

The compound `CCCCCCCCN1CC[C@@]23c4c5ccc(O)c4O[C@@H]2C(=O)CC[C@]3(O)[C@@H]1C5` gave a negative-log IC50 (pIC50) in assay [2] of 5.77.

With `O=C1CC[C@]2(O)[C@@H]3Cc4ccc(O)c5c4[C@]2(CCN3CCCCc2ccccc2)[C@@H]1O5`, the values for the pIC50 in assay [1] and in assay [2] were 4.43 and 5.92, respectively.

Consider `O=C1CC[C@]2(O)[C@@H]3Cc4ccc(O)c5c4[C@]2(CCN3CCCc2ccccc2)[C@@H]1O5`, for which the figures for the pIC50 in assay [1] and in assay [2] were 4.16 and 5.85, respectively.

Consider `O=C1CC[C@]2(O)[C@@H]3Cc4ccc(O)c5c4[C@]2(CCN3CCc2ccccc2)[C@@H]1O5`, for which the pIC50 in assay [1] is 3.85; in assay [2] it was 5.85.

Turning to `O=C1CC[C@]2(O)[C@@H]3Cc4ccc(O)c5c4[C@]2(CCN3CCc2ccccc2F)[C@@H]1O5`, the pIC50 in assay [1] was 4.18; in assay [2], 5.74.

In assay [2], `COc1ccc2c3c1O[C@@H]1C(=O)CC[C@]4(O)C(C2)N(CCc2ccccc2)CC[C@@]314` showed a pIC50 of 5.24.
